Laboratory results taken from patent publication US11485742B2, “2-azaspiro[3.4]octane derivatives as M4 agonists” (NOVARTIS AG, priority 2019, dated 2022).
pEC50: −log10 of the molar value.

Experiments:
[1] = target: T1, human cloned CHRM4 receptor (Homo sapiens, UniProt P08173); assay: CHRM4 Ca++ Flux Assay (M4_CHO cells, agonist mode); format: cell-based; details: for Emax: Percent Activity (PA), read-out: M4 FDSS PA %; for pEC50: geometric mean if tested more than once, read-out: M4 FDSS EC50
T1 construct: expressed in transfected cells; host or cells: CHO-K1 (M4_CHO)
T1 sequence (P08173 1-479): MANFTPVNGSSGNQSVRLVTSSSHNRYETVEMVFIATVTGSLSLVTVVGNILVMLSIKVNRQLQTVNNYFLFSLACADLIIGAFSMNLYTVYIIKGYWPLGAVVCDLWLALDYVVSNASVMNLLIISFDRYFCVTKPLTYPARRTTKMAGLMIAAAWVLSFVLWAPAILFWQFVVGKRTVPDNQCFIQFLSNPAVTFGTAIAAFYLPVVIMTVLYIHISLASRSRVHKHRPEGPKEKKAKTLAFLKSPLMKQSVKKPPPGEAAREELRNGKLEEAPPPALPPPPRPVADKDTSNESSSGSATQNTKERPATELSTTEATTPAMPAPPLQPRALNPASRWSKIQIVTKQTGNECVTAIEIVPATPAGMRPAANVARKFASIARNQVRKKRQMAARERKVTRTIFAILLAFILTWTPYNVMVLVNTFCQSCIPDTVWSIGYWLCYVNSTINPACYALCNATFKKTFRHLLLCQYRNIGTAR
In short: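 CHO-K1 cells stably expressing human M4 were dye-loaded, then held 60 min at RT in Ca/Mg-free HBSS buffer with 20 μM ATP. Ca++ traces were recorded over 3 min after an 11-point compound series in triplicate, agonist mode, with a four-parameter fit. Percent activity is relative to the carbachol EC100; repeat tests are geometric means.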

[2] = target: T2, human cloned CHRM3 receptor (Homo sapiens, UniProt P20309); assay: CHRM3 Ca++ Flux Assay (M3_CHO cells, agonist mode); format: cell-based; details: for Emax: Percent Activity (PA) measured to EC100 of Carbachol, read-out: M3 FDSS PA %; for pEC50: agonist mode, geometric mean if tested more than once, read-out: M3 FDSS EC50
T2 construct: expressed in transfected cells; host or cells: CHO-K1 (M3_CHO)
T2 sequence (P20309 whole entry): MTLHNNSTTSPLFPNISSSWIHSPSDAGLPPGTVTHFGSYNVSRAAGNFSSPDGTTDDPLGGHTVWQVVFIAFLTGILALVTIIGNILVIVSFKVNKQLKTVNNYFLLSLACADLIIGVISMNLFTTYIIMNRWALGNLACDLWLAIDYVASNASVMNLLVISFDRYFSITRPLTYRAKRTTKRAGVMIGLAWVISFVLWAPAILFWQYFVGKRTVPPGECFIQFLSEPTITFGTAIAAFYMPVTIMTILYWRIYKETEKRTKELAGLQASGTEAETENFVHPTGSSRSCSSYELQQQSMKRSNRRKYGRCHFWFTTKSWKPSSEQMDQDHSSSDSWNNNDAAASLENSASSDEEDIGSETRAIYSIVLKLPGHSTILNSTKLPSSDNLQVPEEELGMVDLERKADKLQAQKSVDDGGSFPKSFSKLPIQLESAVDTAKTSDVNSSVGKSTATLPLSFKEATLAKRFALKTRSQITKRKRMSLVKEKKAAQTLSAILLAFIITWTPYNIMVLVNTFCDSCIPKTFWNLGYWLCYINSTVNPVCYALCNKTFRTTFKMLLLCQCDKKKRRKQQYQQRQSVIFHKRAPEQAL
In short: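 CHO-K1 cells stably expressing human M3 or M5 receptor, dye-loaded ≥1 h, treated with 11-point compound doses in triplicate; Ca++ flux read over 3 min (FDSS). Agonist-mode four-parameter fit; percent activity relative to carbachol EC100; repeat tests reported as geometric mean.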

| Emax [1] [%] | pEC50 [1] | Emax [2] [%] | pEC50 [2] | SMILES |
| --- | --- | --- | --- | --- |
| 71 | 7.60 | 0 | < 4.60 | CC1(COc2ccc(F)cc2C2CCN([C@@H]3COC4(C3)CN(c3nncs3)C4)CC2)COC1 [Example 2B, (S)-7-(4-(5-fluoro-2-((3-methyloxetan-3-yl)methoxy)phenyl)piperidin-1-yl)-2-(1,3,4-thiadiazol-2-yl)-5-oxa-2-azaspiro[3.4]octane] |
| 85 | 9.00 | 0 | < 4.60 | Cc1nnc(COc2ccc(F)cc2C2CCN([C@@H]3COC4(C3)CN(c3nnco3)C4)CC2)s1 [Example 2E, (S)-7-(4-(5-fluoro-2-((5-methyl-1,3,4-thiadiazol-2-yl)methoxy)phenyl)piperidin-1-yl)-2-(1,3,4-oxadiazol-2-yl)-5-oxa-2-azaspiro[3.4]octane] |
| 90 | 9.00 | 0 | < 4.60 | Cc1nnc(COc2ccc(F)cc2C2CCN([C@@H]3COC4(C3)CN(c3nnco3)C4)CC2)o1 [Example 2F, (S)-7-(4-(5-fluoro-2-((5-methyl-1,3,4-oxadiazol-2-yl)methoxy)phenyl)piperidin-1-yl)-2-(1,3,4-oxadiazol-2-yl)-5-oxa-2-azaspiro[3.4]octane] |
| 86 | 8.52 | 0 | < 4.60 | Cc1cc(COc2ccc(F)cc2C2CCN([C@@H]3COC4(C3)CN(c3nnco3)C4)CC2)on1 [Example 2G, (S)-7-(4-(5-fluoro-2-((3-methylisoxazol-5-yl)methoxy)phenyl)piperidin-1-yl)-2-(1,3,4-oxadiazol-2-yl)-5-oxa-2-azaspiro[3.4]octane] |
| 88 | 8.22 | 0 | < 4.60 | Fc1ccc(OCC2COC2)c(C2CCN([C@@H]3COC4(C3)CN(c3nnco3)C4)CC2)c1 [Example 2H, (S)-7-(4-(5-fluoro-2-(oxetan-3-ylmethoxy)phenyl)piperidin-1-yl)-2-(1,3,4-oxadiazol-2-yl)-5-oxa-2-azaspiro[3.4]octane] |
| 77 | 7.92 | 0 | < 4.60 | Fc1ccc(OCc2ncccn2)c(C2CCN([C@@H]3COC4(C3)CN(c3nnco3)C4)CC2)c1 [Example 2I, (S)-7-(4-(5-fluoro-2-(pyrimidin-2-ylmethoxy)phenyl)piperidin-1-yl)-2-(1,3,4-oxadiazol-2-yl)-5-oxa-2-azaspiro[3.4]octane] |
| 90 | 7.92 | 0 | < 4.60 | Fc1ccc(OCC2(F)COC2)c(C2CCN([C@@H]3COC4(C3)CN(c3nnco3)C4)CC2)c1 [Example 2J, (S)-7-(4-(5-fluoro-2-((3-fluorooxetan-3-yl)methoxy)phenyl)piperidin-1-yl)-2-(1,3,4-oxadiazol-2-yl)-5-oxa-2-azaspiro[3.4]octane] |
| 82 | 7.74 | 0 | < 4.60 | CC1(COc2ccc(F)cc2C2CCN([C@@H]3COC4(C3)CN(c3nnco3)C4)CC2)COC1 [Example 2K, (S)-7-(4-(5-fluoro-2-((3-methyloxetan-3-yl)methoxy)phenyl)piperidin-1-yl)-2-(1,3,4-oxadiazol-2-yl)-5-oxa-2-azaspiro[3.4]octane] |
| 81 | 7.30 | 0 | < 4.60 | Fc1ccc(OC2CC3(COC3)C2)c(C2CCN([C@@H]3COC4(C3)CN(c3nnco3)C4)CC2)c1 [Example 2L, (S)-7-(4-(2-((2-oxaspiro[3.3]heptan-6-yl)oxy)-5-fluorophenyl)piperidin-1-yl)-2-(1,3,4-oxadiazol-2-yl)-5-oxa-2-azaspiro[3.4]octane] |
| 58 | 6.84 | 0 | < 4.60 | Fc1ccc(OC[C@H]2CCCO2)c(C2CCN([C@@H]3COC4(C3)CN(c3nnco3)C4)CC2)c1 [Example 2M, (S)-7-(4-(5-fluoro-2-(((R)-tetrahydrofuran-2-yl)methoxy)phenyl)piperidin-1-yl)-2-(1,3,4-oxadiazol-2-yl)-5-oxa-2-azaspiro[3.4]octane] |
| 75 | 7.07 | 0 | < 4.60 | CCC1(COc2ccc(F)cc2C2CCN([C@@H]3COC4(C3)CN(c3nnco3)C4)CC2)COC1 [Example 2P, (S)-7-(4-(2-((3-ethyloxetan-3-yl)methoxy)-5-fluorophenyl)piperidin-1-yl)-2-(1,3,4-oxadiazol-2-yl)-5-oxa-2-azaspiro[3.4]octane] |
| 68 | 6.62 | 0 | < 4.60 | Fc1ccc(OCC2CC3(COC3)C2)c(C2CCN([C@@H]3COC4(C3)CN(c3nnco3)C4)CC2)c1 [Example 2S, (S)-7-(4-(2-((2-oxaspiro[3.3]heptan-6-yl)methoxy)-5-fluorophenyl)piperidin-1-yl)-2-(1,3,4-oxadiazol-2-yl)-5-oxa-2-azaspiro[3.4]octane] |
| 89 | 8.70 | 0 | < 4.60 | CCc1nnc(COc2ccc(F)cc2C2CCN([C@@H]3COC4(C3)CN(c3nnco3)C4)CC2)s1 [Example 2T, (S)-7-(4-(2-((5-ethyl-1,3,4-thiadiazol-2-yl)methoxy)-5-fluorophenyl)piperidin-1-yl)-2-(1,3,4-oxadiazol-2-yl)-5-oxa-2-azaspiro[3.4]octane] |
| 86 | 7.92 | 0 | < 4.60 | OC1(COc2ccc(F)cc2C2CCN([C@@H]3COC4(C3)CN(c3nnco3)C4)CC2)COC1 [Example 2U, (S)-3-((2-(1-(2-(1,3,4-oxadiazol-2-yl)-5-oxa-2-azaspiro[3.4]octan-7-yl)piperidin-4-yl)-4-fluorophenoxy)methyl)oxetan-3-ol] |
| 40 | 6.60 | 0 | < 4.60 | CC(C)(O)CCOc1cc(F)ccc1C1CCN([C@@H]2COC3(C2)CN(c2nncs2)C3)CC1 [Example 5V, (S)-4-(2-(1-(2-(1,3,4-thiadiazol-2-yl)-5-oxa-2-azaspiro[3.4]octan-7-yl)piperidin-4-yl)-5-fluorophenoxy)-2-methylbutan-2-ol] |
| 85 | 6.98 | 0 | < 4.60 | Fc1ccc(OC2CC3(COC3)C2)c(C2CCN([C@@H]3COC4(C3)CN(c3nncs3)C4)CC2)c1 [Example 5W, (S)-7-(4-(2-((2-oxaspiro[3.3]heptan-6-yl)oxy)-5-fluorophenyl)piperidin-1-yl)-2-(1,3,4-thiadiazol-2-yl)-5-oxa-2-azaspiro[3.4]octane] |
| 71 | 7.24 | 0 | < 4.60 | Fc1ccc(OC[C@H]2CCOC2)c(C2CCN([C@@H]3COC4(C3)CN(c3nncs3)C4)CC2)c1 [Example 5X, (S)-7-(4-(5-fluoro-2-(((S)-tetrahydrofuran-3-yl)methoxy)phenyl)piperidin-1-yl)-2-(1,3,4-thiadiazol-2-yl)-5-oxa-2-azaspiro[3.4]octane] |
| 64 | 6.96 | 0 | < 4.60 | CC(C)(O)COc1ccccc1C1CCN([C@@H]2COC3(C2)CN(c2ncns2)C3)CC1 [Example 5Y, (S)-1-(2-(1-(2-(1,2,4-thiadiazol-5-yl)-5-oxa-2-azaspiro[3.4]octan-7-yl)piperidin-4-yl)phenoxy)-2-methylpropan-2-ol] |
| 74 | 7.92 | 0 | < 4.60 | Fc1ccc(OC2CCOCC2)c(C2CCN([C@@H]3COC4(C3)CN(c3ncon3)C4)CC2)c1 [Example 6A, (S)-7-(4-(5-fluoro-2-((tetrahydro-2H-pyran-4-yl)oxy)phenyl)piperidin-1-yl)-2-(1,2,4-oxadiazol-3-yl)-5-oxa-2-azaspiro[3.4]octane] |
| 79 | 8.10 | 0 | < 4.60 | Fc1ccc(OC2COC2)c(C2CCN([C@@H]3COC4(C3)CN(c3ncon3)C4)CC2)c1 [Example 6B, (S)-7-(4-(5-fluoro-2-(oxetan-3-yloxy)phenyl)piperidin-1-yl)-2-(1,2,4-oxadiazol-3-yl)-5-oxa-2-azaspiro[3.4]octane] |
| 74 | 7.36 | 0 | < 4.60 | Fc1ccc(OC2CC3(COC3)C2)c(C2CCN([C@@H]3COC4(C3)CN(c3ncon3)C4)CC2)c1 [Example 6C, (S)-7-(4-(2-((2-oxaspiro[3.3]heptan-6-yl)oxy)-5-fluorophenyl)piperidin-1-yl)-2-(1,2,4-oxadiazol-3-yl)-5-oxa-2-azaspiro[3.4]octane] |
